Experimental data published in US7884136B2, “Modified-release formulations of a bupropion salt” (Biovail Laboratories International S.R.L., priority 2005, dated 2011).
Marks after values point to notes of the source that are not given here.

Tests used:
[1] = Recrystallization screen for bupropion hydrobromide polymorphic forms (PXRD); assay type: physicochemical
Procedure: It is well known that organic molecules can crystallize into solid forms. Moreover the same organic compound may assume different crystalline arrangements in solid form, depending on the conditions under which the crystal product is formed. This phenomenon is commonly known as polymorphism. A study was undertaken to explore the polymorphic forms of bupropion hydrobromide. The crystal forms of the products obtained in this study were determined by powder X-ray diffraction (PXRD). A RIGAKU miniflex instrument (Radiation Cu K∝, generator 30 KV, filter Ni) was used to obtain the PXRD data.
Polymorphic form II was obtained by recrystallization of form 1 from solvents or mixtures of solvents such as acetone-water, methanol, dichloromethane, toluene-methanol and dimethylcarbonate-methanol. Polymorphic form III was obtained by recrystallization of polymorphic form I in methanol. Table 80 provides a list of recrystallization conditions and the polymorphic form obtained under each set of conditions.

[2] = Stability of bupropion HBr polymorphic forms I, II and III by PXRD under ICH conditions; assay type: physicochemical; conditions: for Stability of the polymorphic form (words): ICH conditions 40° C., 75% R.H.; for Stability of the polymorphic form (words) / PXRD profile / crystalline form after storage (words): hydrobromide; for PXRD profile / crystalline form after storage (words): ICH conditions 40° C./75% r.h., 1 month
Procedure: It is well known that organic molecules can crystallize into solid forms. Moreover the same organic compound may assume different crystalline arrangements in solid form, depending on the conditions under which the crystal product is formed. This phenomenon is commonly known as polymorphism. […] The crystal forms of the products obtained in this study were determined by powder X-ray diffraction (PXRD). A RIGAKU miniflex instrument (Radiation Cu K∝, generator 30 KV, filter Ni) was used to obtain the PXRD data.
The three polymorphic forms were subjected to stability testing. […] Samples of the polymorphic forms II and III were tested after 1 month under the same accelerated stability conditions.
Samples of bupropion HBr form I were subjected to the conditions for the accelerated stability study as described in Example 10 and the shelf life stability study as described in Example 11.
10 g of bupropion HBr form I were dissolved in a mixture of 170 ml of acetone and 7 ml of water. The mixture was brought to reflux with dissolution of the solid. The solution was then cooled to room temperature. After one night the precipitate formed was filtered and dried at 40° C. under vacuum (30 mmHg) for 12 hours. […] The crystalline form was checked after maintaining the product under these conditions for 1 month.
The mixture was brought to reflux obtaining complete dissolution of the solid. The solution was then cooled to room temperature without stirring and left in these conditions for 18 hours. The resulting crystalline solid was then filtered and dried under vacuum (30 mmHg) at 50° C. for 4 hours. […] The crystalline form was checked after maintaining the product in these conditions for 1 month.

[3] = Moisture content of bupropion salts by KF; assay type: physicochemical; conditions: for KF (moisture content), Original (Initial APIs): original API salts
Procedure: (§1) The eight salts were first evaluated by HPLC, KF, pH and DSC for purity, water content, aqueous pH and possible polymorphs.
(§2) The salts were analysed by DSC (at 10° C./min from 30° C. up to 400° C.) and the pH (aq. 0.5%), and the moisture content by KF were also measured. The TGA was performed on the HCl, maleate, tosylate and HBr salts.

[4] = Thermal analysis by TGA of bupropion salts; assay type: physicochemical; conditions: for TGA: weight lost between room temperature and 100° C.: room temperature to 100° C.
Procedure: 2-5 mg of each salt was placed in an aluminium pan and covered with its lid. DSC was run for each sample at the rate of 10° C./min (for HBr salt, different rates were used to investigate for polymorphs) from 30° C. to 400° C. TGA was also used for each of the HBr, HCl, maleate and tosylate salts.
as §2

[5] = Forced degradation stability study of bupropion salts spiked with placebo/excipients, closed vials, 40° C./75% RH, HPLC assay and impurities; conditions: 32 days, closed vials
Procedure: The stability of the salts was evaluated based on the formation of the main degradation products (see below) as determined by HPLC analysis and the % potency (or assay) of the API, after specific time periods in the stability chamber. The effect of the addition of solvents, such as water, ethanol and isopropyl alcohol, was also studied.
The samples of each salt and the spiked salts with the bupropion HCl XL were prepared under the conditions mentioned in Table 4. […] The stability of the bupropion salts were evaluated based on the formation of the main degradation product 3-chlorobenzoic acid (3-CBZ) and the intermediate degradation products diketone 827U76 and the ketohydroxyl derivatives (20U78 and 852U77) (Scheme 2).
As mentioned above, the stability samples were prepared in 2 mL vials and used directly for assay and impurity analysis by HPLC without further sample preparations to minimize errors.

[6] = pH of 0.5% aqueous solution of bupropion salts; assay type: physicochemical; conditions: 0.5% aqueous solution; for pH (aq. 0.5%), Original (Initial APIs): original API salts
Procedure: as §1, §2

[7] = recrystallized product, solvent/cosolvent differ per trial, trial no. in label

Compound: Br.CC(NC(C)(C)C)C(=O)c1cccc(Cl)c1 (stereo not drawn) [Bupropion Hydrobromide 099]
- K.F. (%) [1, 7]: 0.12%

Compound: Br.CC(NC(C)(C)C)C(=O)c1cccc(Cl)c1 (stereo not drawn) [Bupropion Hydrobromide 108]
- K.F. (%) [1, 7]: 0.14%

Compound: Br.CC(NC(C)(C)C)C(=O)c1cccc(Cl)c1 (stereo not drawn) [Bupropion Hydrobromide 111]
- K.F. (%) [1, 7]: 0.32%

Compound: Br.CC(NC(C)(C)C)C(=O)c1cccc(Cl)c1 (stereo not drawn) [Bupropion Hydrobromide 112]
- K.F. (%) [1, 7]: 0.18%

Compound: Br.CC(NC(C)(C)C)C(=O)c1cccc(Cl)c1 (stereo not drawn) [Bupropion Hydrobromide 113]
- K.F. (%) [1, 7]: 0.39%

Compound: Br.CC(NC(C)(C)C)C(=O)c1cccc(Cl)c1 (stereo not drawn) [Bupropion Hydrobromide 116]
- K.F. (%) ([1]; Form I in rotavapor 100° C. 24 h): 0.45%

Compound: Br.CC(NC(C)(C)C)C(=O)c1cccc(Cl)c1 (stereo not drawn) [Bupropion Hydrobromide 117]
- K.F. (%) [1, 7]: 0.32%

Compound: Br.CC(NC(C)(C)C)C(=O)c1cccc(Cl)c1 (stereo not drawn) [Bupropion Hydrobromide 122]
- K.F. (%) [1, 7]: 1.3%

Compound: Br.CC(NC(C)(C)C)C(=O)c1cccc(Cl)c1 (stereo not drawn) [Form I, bupropion hydrobromide]
- Stability of the polymorphic form (words) ([2]; listed as form I): quite stable
- PXRD profile after storage ([2]; accelerated (40° C./75% RH) and shelf life conditions, 3 months and 6 months): gave the same results

Compound: Br.CC(NC(C)(C)C)C(=O)c1cccc(Cl)c1 (stereo not drawn) [Form II, bupropion hydrobromide]
- Stability of the polymorphic form (words) ([2]; listed as form II): quite stable
- PXRD profile / crystalline form after storage (words) ([2]; listed as bupropion HBr form II): still in form II
- PXRD profile / crystalline form after storage (words) ([2]; listed as form II): no change in the PXRD profile

Compound: Br.CC(NC(C)(C)C)C(=O)c1cccc(Cl)c1 (stereo not drawn) [Form III, bupropion hydrobromide]
- Stability of the polymorphic form (words) ([2]; listed as form III): not as stable as forms I and II
- PXRD profile / crystalline form after storage (words) ([2]; listed as bupropion HBr form III): the majority of the product changed to form II
- PXRD profile / crystalline form after storage (words) ([2]; listed as form III): conversion to form II

Compound: Bupropion maleate
- KF (moisture content), Original (Initial APIs) [3]: 0.10%
- TGA: residue at 400° C. [4]: minimal residues
- TGA: thermally stable to at least ([4]; TGA): at least 150 °C
- TGA: weight lost between room temperature and 100° C. [4]: 1.3%
- Content of impurity 3-CBZ, order of salts ([5]; In IPA/EtOH): maleate > HBr > HCl > Fumarate
- Content of impurity 852U77, order of salts ([5]; In IPA/EtOH): fumarate > HBr ≈ HCl ≈ maleate ≈ tosylate
- Total imp., order of salts ([5]; In IPA/EtOH): fumarate > maleate > HBr > HCl > tosylate
- Content of impurity 3-CBZ, order of salts ([5]; In water): HCl > HBr ≈ maleate ≈ fumarate
- Content of impurity 852U77, order of salts ([5]; In water): fumarate > HBr > maleate > HCl
- Total imp., order of salts ([5]; In water): fumarate > HBr > HCl > tosylate > maleate
- pH (aq. 0.5%), Original (Initial APIs) [6]: 4.29

Compound: Bupropion tosylate
- KF (moisture content), Original (Initial APIs) [3]: 1.71%
- KF (moisture content), Original (Initial APIs) ([3]; listed as Bup-Tosylate): 1.71* %
- KF, After recrystallization (R&D), Tested after 2 Months ([3]; re-crystallized salt, 2 months): 0.18%
- KF, After recrystallization (R&D), Tested after 1 day ([3]; re-crystallized salt): 0.23%
- KF, After recrystallization (R&D), Tested after 1 day ([3]; re-crystallized salt, listed as Bup-Tosylate): 023%
- TGA: residue at 400° C. [4]: 10.3%
- TGA: weight lost between room temperature and 100° C. [4]: 1.3%
- Content of impurity 852U77, order of salts ([5]; In IPA/EtOH): fumarate > HBr ≈ HCl ≈ maleate ≈ tosylate
- Total imp., order of salts ([5]; In IPA/EtOH): fumarate > maleate > HBr > HCl > tosylate
- Total imp., order of salts ([5]; In water): fumarate > HBr > HCl > tosylate > maleate
- pH (aq. 0.5%), Original (Initial APIs) [6]: 5.56
- pH (aq. 0.5%), After recrystallization (R&D), Tested after 1 day ([6]; re-crystallized salt): 5.88
